Laboratory results reported in PubChem BioAssay AID1919013 (Molecular Pharmacology Branch, DTP, NCI, 2023).

System: LG0703-F498-PDC complex spheroid growth
Test: Anticancer human tumor LG0703-F498-PDC patient-derived lung adenocarcinoma cell line growth inhibition [AhR]
Details: for IC50: curve of first compound; for viability, T/C: stronger effect = lower value; active = viability on the fitted dose curve at most 10% of control; inactive = the rest
From the text: Multicellular complex tumor spheroid response to aryl hydrocarbon receptor antagonists in combination with a variety of drugs and investigational agents in selected tumor cell lines
The current study was undertaken to assess response to aryl hydrocarbon receptor antagonists in combination with standard-of-care drugs and investigational agents in solid tumor complex spheroid models. Complex spheroids include a stromal component modeled by human endothelial cells (HUVEC) and fibroblasts modeled by human mesenchymal stem cells (MSCs). The concentration ranges selected for each drug and investigational agent were based upon clinically achievable concentrations if the clinical Cmax of the agent was known.
Compounds. The drugs and investigational agents: BAY 2416964 (NSC825713), GNF351 (NSC835774), CH-223191 (NSC835775), CPI-455 (NSC825282), aza-TdCyd (NSC777586), decitabine (NSC127716), belinostat (NSC758774), entinostat (NSC756642), pevonedistat (NSC761192), tazemetostat (NSC777109), talazoparib (NSC765396), olaparib (NSC753686), selinexor (NSC780203), nedisertib (M3814, NSC802822), bortezomib (NSC756655), venetoclax (NSC766270), doxorubicin (NSC123127), elimusertib (BAY189344, NSC800525), ceralasertib (AZD6738, NSC777638), TAK-243 (NSC785004), alisertib (NSC759677), etoposide (NSC141540), topotecan (NSC609699), eribulin (NSC707389), gemcitabine (NSC613327), carboplatin (NSC241240), cisplatin (NSC119875), and SN-38 (NSC673596) were obtained from the National Cancer Institute (NCI) Developmental Therapeutics Program Chemical Repository (32). The FDA-approved anticancer drug set is available from the Developmental Therapeutics Program at https://dtp.cancer.gov/organization/dscb/obtaining/available plates.htm. […] The stock solutions were prepared in dimethyl sulfoxide (DMSO, Sigma-Aldrich, St. Louis, MO, cat. D2650), except for the platinum compounds which were prepared in saline (Quality Biological, Gaithersburg, MD, cat. 114-055-101), at 800-fold the tested concentration and stored at -70 degrees C prior to their use. All drugs and investigational agents were tested over a range starting from a high concentration at or near the clinical Cmax and decreasing in half-log increments. If the clinical Cmax for an agent had not been determined, the highest concentration tested was 10 microM (Table 1).
Cell Culture. All cells were maintained in an incubator at 37 degrees C and 5% CO2 with 95% humidity. The PDC lines were cultured according to standard operating procedures established by the NCI PDMR (https://pdmr.cancer.gov). Briefly, all PDCs were thawed and cultured in Matrigel-coated flasks prepared with a working solution of 1X Ham's F-12 nutrient mix, without supplementation (Invitrogen, Waltham, MA, cat. 11765054), 100 U/mL penicillin-streptomycin (Invitrogen, cat. 15140122), and 2.5% Matrigel (Corning Inc., Corning, NY, cat. 354248) for the first three passages. All PDCs were cultured in complete DMEM/F-12 media containing advanced DMEM/F-12 (Invitrogen, cat. 12634028), 4.9% defined fetal bovine serum, heat inactivated (HyClone Laboratories Inc., Logan, UT, cat. SH30070.03HI), 389 ng/mL hydrocortisone (Sigma-Aldrich, cat. H4001), 9.7 ng/mL human EGF recombinant protein (Invitrogen, cat. PHG0313), 23.4 microg/mL adenine (Sigma-Aldrich, cat. A2786), 97.3 U/mL penicillin-streptomycin (Invitrogen, cat. 15140122), 1.9 mM L-glutamine (Invitrogen, cat. 25030081), and 9.7 microM Y-27632 dihydrochloride (Tocris Bioscience, Bristol, United Kingdom, cat. 1254). The PDCs were cultured in complete DMEM/F12 media without 10 microM Y-27632 dihydrochloride for at least two passages prior to the screen. The established cell lines NCI-H1341 and […] were cultured in DMEM/F-12, HEPES (Invitrogen, cat. 11330032), 5% defined fetal bovine serum (HyClone Laboratories Inc., cat. SH30070.03), ITS premix universal culture supplement [insulin (5 microg/mL), transferrin (5 microg/mL), and selenious acid (5 ng/mL)] […]
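Note: luminescence taken as a proxy for viable cell amount.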
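Throughout, for viability, T/C: percent of DMSO vehicle control where 100% means growth equal to vehicle.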

CC[C@@]1(O)C(=O)OCc2c1cc1n(c2=O)Cc2cc3c(CN(C)C)c(O)ccc3nc2-1 + CC(CO)NC(=O)c1cc(-c2ccc(Cl)cc2)nn(-c2cnn(C)c2)c1=O
> 100 nM: IC50 (second compound 0.1 µM) | IC50 (second compound 0.316 µM) | IC50 (second compound 1 µM) | IC50 (second compound 3.16 µM) | IC50 (second compound 10 µM)
inactive: viability, T/C (second compound 0.1 µM, first compound 0.000316 µM) 89% | viability, T/C (second compound 0.1 µM, first compound 0.001 µM) 101% | viability, T/C (second compound 0.1 µM, first compound 0.00316 µM) 86.7% | viability, T/C (second compound 0.1 µM, first compound 0.01 µM) 90.6% | viability, T/C (second compound 0.1 µM, first compound 0.0316 µM) 83.2% | viability, T/C (second compound 0.1 µM, first compound 0.1 µM) 66.1% | viability, T/C (second compound 0.316 µM, first compound 0.000316 µM) 96% | viability, T/C (second compound 0.316 µM, first compound 0.001 µM) 99.5% | viability, T/C (second compound 0.316 µM, first compound 0.00316 µM) 92.3% | viability, T/C (second compound 0.316 µM, first compound 0.01 µM) 80.9% | viability, T/C (second compound 0.316 µM, first compound 0.0316 µM) 73.2% | viability, T/C (second compound 0.316 µM, first compound 0.1 µM) 57.2% | viability, T/C (second compound 1 µM, first compound 0.000316 µM) 80.8% | viability, T/C (second compound 1 µM, first compound 0.001 µM) 93.2% | viability, T/C (second compound 1 µM, first compound 0.00316 µM) 84.5% | viability, T/C (second compound 1 µM, first compound 0.01 µM) 77.4% | viability, T/C (second compound 1 µM, first compound 0.0316 µM) 78.6% | viability, T/C (second compound 1 µM, first compound 0.1 µM) 61.2% | viability, T/C (second compound 3.16 µM, first compound 0.000316 µM) 76% | viability, T/C (second compound 3.16 µM, first compound 0.001 µM) 86.3% | viability, T/C (second compound 3.16 µM, first compound 0.00316 µM) 90.8% | viability, T/C (second compound 3.16 µM, first compound 0.01 µM) 79.2% | viability, T/C (second compound 3.16 µM, first compound 0.0316 µM) 58.6% | viability, T/C (second compound 3.16 µM, first compound 0.1 µM) 52.9% | viability, T/C (second compound 10 µM, first compound 0.000316 µM) 79.2% | viability, T/C (second compound 10 µM, first compound 0.001 µM) 79.7% | viability, T/C (second compound 10 µM, first compound 0.00316 µM) 86.6% | viability, T/C (second compound 10 µM, first compound 0.01 µM) 66.5% | viability, T/C (second compound 10 µM, first compound 0.0316 µM) 63.4% | viability, T/C (second compound 10 µM, first compound 0.1 µM) 51.9%
